Assay results reported in US10039806B2, “Methods and compositions for treating antiprogestin-resistant cancers” (Fundación Sales, priority 2011, dated 2018).
Where two headings read alike, the source gives them in different places.

How the values were obtained:
PR [1] = molecular target: T1, PR (Homo sapiens, UniProt P06401); conditions: cited from earlier work
T1 sequence (P06401 1-933): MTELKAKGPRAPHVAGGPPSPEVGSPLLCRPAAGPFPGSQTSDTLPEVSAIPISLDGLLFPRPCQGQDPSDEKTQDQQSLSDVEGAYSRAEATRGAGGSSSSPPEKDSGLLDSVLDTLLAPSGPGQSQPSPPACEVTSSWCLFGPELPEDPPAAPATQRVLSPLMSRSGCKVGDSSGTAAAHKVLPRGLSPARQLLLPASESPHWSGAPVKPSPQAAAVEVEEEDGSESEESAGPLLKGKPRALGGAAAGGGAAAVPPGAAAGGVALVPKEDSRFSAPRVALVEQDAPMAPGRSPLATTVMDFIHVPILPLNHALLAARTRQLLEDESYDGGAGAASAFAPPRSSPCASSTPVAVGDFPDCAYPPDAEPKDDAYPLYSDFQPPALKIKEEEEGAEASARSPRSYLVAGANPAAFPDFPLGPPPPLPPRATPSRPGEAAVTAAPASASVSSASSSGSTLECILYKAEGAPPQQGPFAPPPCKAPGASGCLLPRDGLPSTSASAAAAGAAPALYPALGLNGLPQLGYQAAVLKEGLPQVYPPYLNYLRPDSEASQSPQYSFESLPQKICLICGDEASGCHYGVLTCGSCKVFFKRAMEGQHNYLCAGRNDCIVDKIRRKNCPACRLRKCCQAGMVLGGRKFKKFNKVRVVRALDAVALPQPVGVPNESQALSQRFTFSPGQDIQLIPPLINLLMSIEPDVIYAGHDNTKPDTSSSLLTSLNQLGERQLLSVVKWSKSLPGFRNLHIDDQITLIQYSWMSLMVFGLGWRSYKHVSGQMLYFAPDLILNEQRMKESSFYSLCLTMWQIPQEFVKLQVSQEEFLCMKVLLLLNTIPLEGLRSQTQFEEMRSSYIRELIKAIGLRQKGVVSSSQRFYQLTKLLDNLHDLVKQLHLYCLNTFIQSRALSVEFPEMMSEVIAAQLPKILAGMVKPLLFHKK

HI-responsive tumors [2] = assay: MPA breast cancer model, HI-responsive tumors in vivo; design: species or system mouse
GR = GR (Homo sapiens, UniProt P04150); conditions: cited from earlier work
glucocorticoid receptor = molecular target: T2, glucocorticoid receptor (Homo sapiens, UniProt P04150); conditions: cited from earlier work
T2 sequence (P04150 1-777): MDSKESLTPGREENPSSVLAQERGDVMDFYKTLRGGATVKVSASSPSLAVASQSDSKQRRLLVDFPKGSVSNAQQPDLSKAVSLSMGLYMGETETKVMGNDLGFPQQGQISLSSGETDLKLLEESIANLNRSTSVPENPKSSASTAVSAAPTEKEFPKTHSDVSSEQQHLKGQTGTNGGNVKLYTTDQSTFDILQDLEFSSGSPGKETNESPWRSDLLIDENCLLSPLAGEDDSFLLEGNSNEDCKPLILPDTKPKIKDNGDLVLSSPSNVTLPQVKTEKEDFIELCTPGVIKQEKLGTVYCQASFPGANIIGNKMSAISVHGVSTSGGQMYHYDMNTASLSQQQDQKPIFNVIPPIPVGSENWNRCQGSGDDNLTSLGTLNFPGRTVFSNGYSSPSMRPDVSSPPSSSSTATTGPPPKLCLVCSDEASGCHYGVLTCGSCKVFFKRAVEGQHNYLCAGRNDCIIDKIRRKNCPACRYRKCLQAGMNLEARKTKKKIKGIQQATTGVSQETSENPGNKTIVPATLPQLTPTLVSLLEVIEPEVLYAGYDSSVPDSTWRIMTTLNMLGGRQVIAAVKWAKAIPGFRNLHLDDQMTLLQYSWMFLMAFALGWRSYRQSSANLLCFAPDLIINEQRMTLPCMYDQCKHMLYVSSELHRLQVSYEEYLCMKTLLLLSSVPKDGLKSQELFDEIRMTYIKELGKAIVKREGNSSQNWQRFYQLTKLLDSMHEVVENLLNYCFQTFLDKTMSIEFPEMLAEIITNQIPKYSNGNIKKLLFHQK

T61 human tumors = conditions: in vivo; cited from earlier work
T47D cells = conditions: cited from earlier work
PR [3] = molecular target: T1, PR; conditions: cited from earlier work; remark: listed apart in the source
MCF-7 xenografts = conditions: MIF 50 mg/kg/day, ONA 30 mg/kg/day, 17 days; cited from earlier work
breast cancer = conditions: cited from earlier work
[4] = tested on: primary cultures of responsive tumors; conditions: 1-100 nM; cited from earlier work
[5] = tested on: DMBA-induced mammary tumors; conditions: cited from earlier work
HI-responsive tumors [6] = conditions: cited from earlier work; for therapeutic effects: murine mammary carcinomas with increased PR-A/PR-B
[7] = tested on: MXT mouse model of breast cancer; conditions: cited from earlier work
[8] = tested on: epithelial cells from breast cancer samples; assay: Primary cultures from breast cancer samples: cell number or Ki67; type: cell-based, human; conditions: 10^-8 M, one week; 3 out of 8 cases; p<0.05
Description: The samples were obtained at surgery from patients diagnosed with breast cancer at the […]. de Martinez Hospital from General Pacheco and at the […] Hospital of Buenos Aires after signing the informed consent (n=70; median age 55 year). Protocols were approved by the Institutional Ethical Review Board. Whenever possible, one piece of the sample was kept in dry ice immediately after surgery and another piece was kept in culture medium and transported to IBYME. Tumor samples were processed by mechanical and enzymatic degradation and epithelial cells were purified by differential sedimentation techniques (7). The epithelial cells were cultured with DMEM/F12 medium plus 10% fetal calf serum (FCS). Once the cultures were overcrowded, they were subcultured and equal numbers of cells were seeded in 24 well plates. […] OH-Tamoxifen was also used as a control. After one week of treatment, the cells were trypsinized and the total number of cells in each well was counted or alternatively, they were fixed to evaluate the Ki67 (proliferation marker) expression by IHC. In several cases in which there were carcinoma associated fibroblasts intermingled with the epithelial cells, a double staining of Ki67 and cytokeratin (CK) was performed to consider the proliferating cells among the total number of epithelial cells (CK+). An inhibitory index was calculated for each tumor.

MCF-7 cells = conditions: 10 nM; 10% steroid-deficient human serum; cited from earlier work
C4-HIR cells = assay: (3H)-thymidine uptake, primary cultures of purified epithelial cells; type: cell-based, mouse; conditions: 48 h, with MPA; P<0.001
Method: (§1) Epithelial cells and carcinoma-associated fibroblasts were separated by differential sedimentation and plated with 10% FCS. Carcinoma-associated fibroblasts were allowed to attach for 0.5 h and the epithelial cells for 24-48 h. The medium was replaced by fresh medium with 10% FCS; thereafter, it was changed every 2-3 days.
(§2) (3H)-thymidine-uptake was used as an indirect method to evaluate cell proliferation. In brief, cells were seeded into 96-well microplates. After attachment (24 h), the cells were incubated for 24 h with 1% steroid-stripped FCS and then for 48 h with the experimental solutions to be tested in 1% chFCS. Fifty percent of the medium was replaced with fresh medium every 24 h. The cells were incubated with 0.4 μCi of 3H-thymidine (specific activity: 20 Ci/mmol) for 24 h, trypsinized, and harvested in a cell harvester. In experiments in which 5azadC was used, the experiments were carried out using proliferating cells (presence of 10% FCS) to guarantee the effect of the demethylating agent. Three different experiments were made using octuplicates, and the means and standard deviations of one representative experiment of the other three are shown. The results are expressed as the proliferation index (cpm […] experimental group/cpm control; mean±SEM).

C4-HI cells = assay: as above; type: cell-based, mouse; conditions: 48 h, with MPA; P<0.001
Method: as §1, §2

For `C/C=C\[C@]1(O)CC[C@H]2[C@@H]3CCC4=CC(=O)CCC4=C3[C@@H](c3ccc(N(C)C)cc3)C[C@@]21C` [Aglepristone], the PR affinity (PR [1]) is listed as “high affinity”, the tumor regression (HI-responsive tumors [2]; 3 mg/week, unpublished data) is listed as “regress” and the GR affinity (GR) is listed as “lower affinity”.

In the case of `CC(=O)O[C@]1(C(C)=O)CC[C@H]2[C@@H]3CCC4=CC(=O)CCC4=C3[C@@H](c3ccc(N(C)C)cc3)C[C@@]21C` [CDB-2914], the antiglucocorticoid activity (glucocorticoid receptor) is given as “less than that of MIF”.

For `COCC(=O)[C@@]1(OC(C)=O)CC[C@H]2[C@@H]3CCC4=CC(=O)CCC4=C3[C@@H](c3ccc(N(C)C)cc3)C[C@@]21C` [CDB-4124], the antiglucocorticoid activity (glucocorticoid receptor) is listed as “less than that of MIF”.

For `C[C@]12CC[C@@H]3c4ccc(O)cc4CC[C@H]3[C@@H]1CC[C@@H]2O` [E2, 17-β-Estradiol], the tumor regression (HI-responsive tumors [2]; 0.5-5 mg) is listed as “regress” and the tumor growth (T61 human tumors) is listed as “induces tumor regression”.

For `CN(C)c1ccc([C@H]2C[C@]3(C)[C@@H](CC[C@]3(O)CCCO)[C@@H]3CCC4=CC(=O)CCC4=C32)cc1` [ONA, onapristone], the “effects on T47D cells” value (T47D cells; 5% FCS) is given as “inhibitory effects”, the “effect in cells treated with analogs of cyclic AMP” value (PR [3]; T47D cells transfected with MMTV-CAT) is given as “still behaved as an antagonist” and the tumor growth (T61 human tumors) is given as “has no effect”. For the same molecule, the “E2-induced proliferation of xenografts” value (MCF-7 xenografts) was “inhibited”, the partial response (breast cancer; 19 patients) was 56% and the stable disease (breast cancer; 19 patients) was 11%. The reason for discontinuation (breast cancer; human, in vivo) was “hepatotoxicity”, the “reason for stopping the trial” value (breast cancer; human, in vivo) was “liver function test abnormalities” and the “MPA-induced or FGF2-induced cell proliferation” value [4] was “inhibited MPA-induced or FGF2-induced cell proliferation”. The “efficacy compared with MIF” value ([5]; same doses) was “more efficacious than MIF”, the antiglucocorticoid activity (glucocorticoid receptor) was “antiglucocorticoid effects at higher concentrations” and the tumor regression (HI-responsive tumors [6]; daily doses of 10 mg/kg) was “regress”. For the same molecule, the tumor regression (HI-responsive tumors [6]; mouse, in vivo) was “induced tumor regression”, the therapeutic effects (HI-responsive tumors [6]) was “excellent therapeutic effects” and the “inhibition of cell proliferation compared with MIF” value ([7]; 10 mg/kg/day) was “better than MIF at inhibiting cell proliferation”. The “tumor take and stimulatory effects of E2 and MPA” value ([7]; 1 or 10 mg/kg/day from one day post-transplantation) was “inhibited both tumor take and the stimulatory effects of E2 and MPA”.

In the case of `C[C@@H]1C[C@@H]2C(=C3CCC(=O)C=C31)[C@@H](c1ccc(N(C)C)cc1)C[C@@]1(C)[C@H]2CC[C@@]12CCCO2` [Org 31710], the “efficacy compared with MIF” value ([5]; p.o.) is listed as “more effective than MIF”.

For `C[C@H]1CC2=CC(=O)CCC2=C2[C@@H]1[C@@H]1CC[C@@]3(CCCO3)[C@@]1(C)C[C@@H]2c1ccc(N(C)C)cc1` [Org 31806], the “efficacy compared with MIF” value ([5]; p.o.) is listed as “more effective than MIF”.

In the case of `CCC(=O)[C@@]1(C)CC[C@H]2[C@@H]3CCC4=CC(=O)CCC4=C3CC[C@@]21C` [R5020], the “proliferation of T47D and MCF-7 cells” value (T47D cells; MIF at micromolar concentrations) is listed as “stimulate the proliferation”.

In the case of `CC/C(=C(\c1ccccc1)c1ccc(OCCN(C)C)cc1)c1ccccc1` [Tamoxifen, tamoxifen], the E2-induced cell proliferation (T47D cells; clone 11, ER- and PR-positive) is listed as “specifically inhibit E2-induced cell proliferation”, the tumor growth (HI-responsive tumors [2]; mouse, in vivo) is listed as “tumor growth was inhibited” and the tumor growth (T61 human tumors) is listed as “inhibits tumor growth”. For the same molecule, the “number of cells as compared to the controls” value [8] was “significant decrease in the number of cells”, the E2-induced cell proliferation (MCF-7 cells) was “inhibited E2-induced cell proliferation” and the “PR (and ER) expression” value ([5]; rat, in vivo) was “increased PR expression”.

In the case of `CC#C[C@]1(O)CC[C@H]2[C@@H]3CCC4=CC(=O)CCC4=C3[C@@H](c3ccc(C(C)=O)cc3)C[C@@]21C` [ZK 112993], the tumor growth (T61 human tumors) is given as “significantly inhibits the growth”.

For `CC(=O)c1ccc([C@H]2C[C@@]3(C)[C@@H](CC[C@@]3(O)C(F)(F)C(F)(F)F)[C@@H]3CCC4=CC(=O)CCC4=C32)cc1` [ZK 230211, lonaprisan], the apoptosis (T47D cells; 10 nM) is given as “induces apoptosis”, the “effect on PKA-activated PR-B” value (PR [3]) is given as “no effect on PKA-activated PR-B” and the MPA-induced proliferative effect (C4-HIR cells) is given as “abolished”. The MPA-induced proliferative effect (C4-HI cells) was “abolished”, the “MPA-induced or FGF2-induced cell proliferation” value [4] was “inhibited MPA-induced or FGF2-induced cell proliferation” and the antiglucocorticoid activity (glucocorticoid receptor) was “low antiglucocorticoid activity”. For the same molecule, the tumor regression (HI-responsive tumors [6]; daily doses of 10 mg/kg) was “regress”, the tumor regression (HI-responsive tumors [6]; mouse, in vivo) was “induced tumor regression” and the therapeutic effects (HI-responsive tumors [6]) was “excellent therapeutic effects”.
